# Test results published in PubChem BioAssay AID623928 (NMMLSC, 2012).
# The source made the active and inactive calls.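 The calls were made as follows: active = liver cell toxicity, with the dose killing half the cells under 10 micromolar; inactive = the rest.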
# Tested on: Fa2N-4 hepatocyte viability, ATP luminescence, 24 h
# Experiment: Fa2N-4 hepatocyte viability loss – Fa2N-4 cells, cytotoxicity control for GPR30 and estrogen receptor ligands, late-stage follow-up (AID 623928)
smiles,measurement,value
CC(=O)c1ccc2c(c1)[C@@H]1C=CC[C@@H]1[C@H](c1cc3c(cc1Br)OCO3)N2,LC50,> 50 µM (inactive)
